Results taken from patent US4882313A, “Carboxamide derivatives of glycopeptides” (SmithKline Beckman Corporation, priority 1987, dated 1989).

Experiments:
[1] = test system: Staphylococcus saprophyticus; test: standard microtiter assay, minimum inhibitory concentration; format: cell-based; conditions: Test Organism 12, Staphylococcus saprophyticus
Text: (§1) Representative results of standard microtiter assays are reported in Table 1 which follows, as the minimum inhibitory concentration of antibiotic (mg/ml). In Table 1, test organisms 1-5 were different strains of Staphylococcus aureus; 6, 8, 11, 13 and 14 were different strains of Staphylococcus epidermidis; 7 was a Staphylococcus haemolyticus; 9 and 10 were different strains of Streptococcus faecalis; and 12 was a Staphylococcus saprophyticus.

[2] = test system: Staphylococcus haemolyticus; test: as above; format: cell-based; conditions: Test Organism 7, Staphylococcus haemolyticus
Text: as §1

Streptococcus faecalis = test: as above; format: cell-based; conditions: for minimum inhibitory concentration of antibiotic, Test Organism 9: Test Organism 9, strain of Streptococcus faecalis; for minimum inhibitory concentration of antibiotic, Test Organism 10: Test Organism 10, strain of Streptococcus faecalis
Text: as §1

Staphylococcus aureus = test: as above; format: cell-based; conditions: for minimum inhibitory concentration of antibiotic, Test Organism 1: Test Organism 1, strain of Staphylococcus aureus; for minimum inhibitory concentration of antibiotic, Test Organism 2: Test Organism 2, strain of Staphylococcus aureus; for minimum inhibitory concentration of antibiotic, Test Organism 3: Test Organism 3, strain of Staphylococcus aureus; for minimum inhibitory concentration of antibiotic, Test Organism 4: Test Organism 4, strain of Staphylococcus aureus; for minimum inhibitory concentration of antibiotic, Test Organism 5: Test Organism 5, strain of Staphylococcus aureus
Text: as §1

[3] = test system: Staphylococcus epidermidis; test: as above; format: cell-based; design: minimum inhibitory concentration of antibiotic, Test Organism 8: unit not given here; conditions: for minimum inhibitory concentration of antibiotic, Test Organism 6: Test Organism 6, strain of Staphylococcus epidermidis; for minimum inhibitory concentration of antibiotic, Test Organism 8: Test Organism 8, strain of Staphylococcus epidermidis; for minimum inhibitory concentration of antibiotic, Test Organism 11: Test Organism 11, strain of Staphylococcus epidermidis; for minimum inhibitory concentration of antibiotic, Test Organism 13: Test Organism 13, strain of Staphylococcus epidermidis; for minimum inhibitory concentration of antibiotic, Test Organism 14: Test Organism 14, strain of Staphylococcus epidermidis
Text: as §1

[4] = pI (analytical data, Table 2); format: physicochemical
Text: Using substantially the procedures of both Examples 1 and 2, the compounds of Examples 3-15 were obtained by using the appropriate glycopeptide and amine starting materials.

| Compound | minimum inhibitory concentration of antibiotic, Test Organism 12 [1] | minimum inhibitory concentration of antibiotic, Test Organism 7 [2] | minimum inhibitory concentration of antibiotic, Test Organism 9 (Streptococcus faecalis) | minimum inhibitory concentration of antibiotic, Test Organism 10 (Streptococcus faecalis) | minimum inhibitory concentration of antibiotic, Test Organism 1 (Staphylococcus aureus) | minimum inhibitory concentration of antibiotic, Test Organism 2 (Staphylococcus aureus) | minimum inhibitory concentration of antibiotic, Test Organism 3 (Staphylococcus aureus) | minimum inhibitory concentration of antibiotic, Test Organism 4 (Staphylococcus aureus) | minimum inhibitory concentration of antibiotic, Test Organism 5 (Staphylococcus aureus) | minimum inhibitory concentration of antibiotic, Test Organism 6 [3] | minimum inhibitory concentration of antibiotic, Test Organism 8 [3] | minimum inhibitory concentration of antibiotic, Test Organism 11 [3] | minimum inhibitory concentration of antibiotic, Test Organism 13 [3] | minimum inhibitory concentration of antibiotic, Test Organism 14 [3] | pI [4] |
| --- | --- | --- | --- | --- | --- | --- | --- | --- | --- | --- | --- | --- | --- | --- | --- |
| CNC1C(=O)NC2C(=O)NC(C(=O)NC3C(=O)NC4C(=O)NC(C(=O)NC(C(N)=O)c5cc(O)cc(O)c5-c5cc4ccc5O)C(O)c4cc(Cl)c(c(Cl)c4)Oc4cc3cc(c4O)Oc3ccc(cc3Cl)C2O)c2cc(cc(O)c2Cl)Oc2cc1ccc2O (stereo not drawn) [Compound 2c, Ardacin aglycone amide] | 200 µg/mL | 800 µg/mL | 200 µg/mL | 400 µg/mL | 200 µg/mL | 200 µg/mL | 400 µg/mL | 400 µg/mL | 200 µg/mL | 400 µg/mL | 0.4 | 400 µg/mL | 400 µg/mL | 200 µg/mL | 7.1 |
| CNC1C(=O)NC2C(=O)NC(C(=O)NC3C(=O)NC4C(=O)NC(C(=O)NC(C(=O)NCCO)c5cc(O)cc(O)c5-c5cc4ccc5O)C(O)c4cc(Cl)c(c(Cl)c4)Oc4cc3cc(c4O)Oc3ccc(cc3Cl)C2O)c2cc(cc(O)c2Cl)Oc2cc1ccc2O (stereo not drawn) [Compound 2d, Ardacin aglycone-(2-hydroxyethyl amide)] | 400 µg/mL | 800 µg/mL | 200 µg/mL |  | 50 µg/mL | 50 µg/mL | 50 µg/mL | 200 µg/mL | 200 µg/mL | 400 µg/mL |  | 800 µg/mL | 200 µg/mL | 400 µg/mL | 7.1 |
| CNCCNC(=O)C1NC(=O)C2NC(=O)C(NC(=O)C3NC(=O)C4NC(=O)C(NC(=O)C(NC)c5ccc(O)c(c5)Oc5cc(O)c(Cl)c4c5)C(O)c4ccc(c(Cl)c4)Oc4cc3cc(c4O)Oc3c(Cl)cc(cc3Cl)C2O)c2ccc(O)c(c2)-c2c(O)cc(O)cc21 (stereo not drawn) [Compound 2f, Ardacin aglycone-(2-Nmethylaminoethyl amide)] | 100 µg/mL | 200 µg/mL | 100 µg/mL | 100 µg/mL | 200 µg/mL | 200 µg/mL | 100 µg/mL | 200 µg/mL | 100 µg/mL | 200 µg/mL | 0.1 | 100 µg/mL | 50 µg/mL | 100 µg/mL | 7.7 |
| CNC1C(=O)NC2C(=O)NC(C(=O)NC3C(=O)NC4C(=O)NC(C(=O)NC(C(=O)NCCN(C)C)c5cc(O)cc(O)c5-c5cc4ccc5O)C(O)c4cc(Cl)c(c(Cl)c4)Oc4cc3cc(c4O)Oc3ccc(cc3Cl)C2O)c2cc(cc(O)c2Cl)Oc2cc1ccc2O (stereo not drawn) [Compound 2g, Ardacin aglycone-(2-N,Ndimethylaminoethyl amide)] | 100 µg/mL | 200 µg/mL | 100 µg/mL | 200 µg/mL | 200 µg/mL | 100 µg/mL | 200 µg/mL | 400 µg/mL | 100 µg/mL | 200 µg/mL | 0.2 | 200 µg/mL | 50 µg/mL | 50 µg/mL | 7.7 |
| CNC1C(=O)NC2C(=O)NC(C(=O)NC3C(=O)NC4C(=O)NC(C(=O)NC(C(=O)NCCCCCCN)c5cc(O)cc(O)c5-c5cc4ccc5O)C(O)c4cc(Cl)c(c(Cl)c4)Oc4cc3cc(c4O)Oc3ccc(cc3Cl)C2O)c2cc(cc(O)c2Cl)Oc2cc1ccc2O (stereo not drawn) [Compound 2h, Ardacin aglycone-(6-aminohexyl amide)] | 200 µg/mL | 200 µg/mL | 100 µg/mL | 100 µg/mL | 100 µg/mL | 100 µg/mL | 400 µg/mL | 100 µg/mL | 100 µg/mL | 100 µg/mL | 0.1 | 200 µg/mL | 100 µg/mL |  | 7.7 |
| CCCCCCCCCC(=O)NC1C(Oc2c3cc4cc2Oc2c(Cl)cc(cc2Cl)C(O)C2NC(=O)C(NC(=O)C4NC(=O)C4NC(=O)C(NC(=O)C(NC)c5ccc(O)c(c5)Oc5cc(O)c(Cl)c4c5)C(O)c4ccc(c(Cl)c4)O3)c3ccc(O)c(c3)-c3c(OC4OC(CO)C(O)C(O)C4O)cc(O)cc3C(C(N)=O)NC2=O)OC(C(N)=O)C(O)C1O (stereo not drawn) [Compound 2j, Ardacin A diamide] | 3100 µg/mL | 3100 µg/mL | 200 µg/mL | 100 µg/mL | 800 µg/mL | 1600 µg/mL | 800 µg/mL | 3100 µg/mL | 1600 µg/mL | 6300 µg/mL | 6.3 | 6300 µg/mL | 3100 µg/mL | 800 µg/mL | 7.2 |
